Data: patent US4292309A, “Antibiotics C-14482 B1, B2 and B3” (Takeda Chemical Industries, Ltd., priority 1979, dated 1981)
Values after ≈ are worked out from the molar mass of the structure shown. Read-outs that look alike come from different tables or passages of the source.

Columns and labels:
[1] = test system: Strain IFO 13725; assay: Susceptibility toward antibiotic (minimum inhibition concentration); assay type: cell-based, Nocardia sp. No. C-14482; settings: Nocardia
Source text: (§1) For example, a conventional mutagenesis effected with the strain IFO 13725 as the parent strain yields the strain IFO 13887, a variant capable of producing advantageously Antibiotic C-14482 B. This strain has the capability to produce C-14482 B in increased quantities as compared with the parent strain thereof, and is similar in taxonomical characteristics to the parent strain, except the physiological properties shown in Table 4.

[2] = test system: Strain IFO 13887; assay: as above; assay type: cell-based, Nocardia sp. No. C-14482; settings: Nocardia
Source text: as §1

[3] = IFO13725, Strain IFO 13725, read-out: minimum inhibition concentration
[4] = IFO13887, Strain IFO 13887, read-out: minimum inhibition concentration

Row | SMILES | MIC [1, 3] | MIC [2, 4] | MIC ([1]; IFO13725, read-out: minimum inhibition concentration) | MIC ([2]; IFO13887, read-out: minimum inhibition concentration)
1 | O=C(N[C@H](CO)[C@H](O)c1ccc([N+](=O)[O-])cc1)C(Cl)Cl [Chloramphenicol] | 10 µg/mL (≈ 30.9 µM) | 5 µg/mL (≈ 15.5 µM) |  | 
2 | CO[C@H]1/C=C/O[C@@]2(C)Oc3c(C)c(O)c4c(O)c(c(/C=N/N5CCN(C)CC5)c(O)c4c3C2=O)NC(=O)/C(C)=C\C=C\[C@H](C)[C@H](O)[C@@H](C)[C@@H](O)[C@@H](C)[C@H](OC(C)=O)[C@@H]1C [Rifampicin] | < 0.1 µg/mL | < 0.1 µg/mL |  | 
3 | CC1(C)S[C@@H]2[C@H](NC(=O)Cc3ccccc3)C(=O)N2[C@H]1C(=O)O [Penicillin G] | 10 µg/mL (≈ 29.9 µM) | 50 µg/mL (≈ 150 µM) |  | 
4 | [H]/N=C(/N)N[C@H]1[C@H](O)[C@@H](O)[C@H](O[C@@H]2O[C@@H](C)[C@](O)(C=O)[C@H]2O[C@@H]2O[C@@H](CO)[C@H](O)[C@@H](O)[C@@H]2NC)[C@@H](N/C(N)=N\[H])[C@@H]1O [Streptomycin] | 1 µg/mL (≈ 1.72 µM) | 5 µg/mL (≈ 8.6 µM) |  | 
5 | CN(C)C1C(=O)C(C(N)=O)=C(O)C2(O)C(=O)C3=C(O)c4c(O)cccc4C(C)(O)C3CC12 (stereo not drawn) [Tetracycline] |  |  | 0.5 µg/mL (≈ 1.13 µM) | 1 µg/mL (≈ 2.25 µM)
6 | CCC[C@@H]1C[C@@H](C(=O)N[C@@H]([C@H]2O[C@H](SC)[C@H](O)[C@@H](O)[C@H]2O)[C@@H](C)O)N(C)C1 [Lincomycin] | 5 µg/mL (≈ 12.3 µM) | 20 µg/mL (≈ 49.2 µM) |  | 
